Source: US5064954A, “Process for producing halomethylcarbapenems” (Shionogi & Co., Ltd., priority 1990, dated 1991)
≈ marks a conversion by molar mass, not a printed value. Where a name gives a salt, the structure may show the parent alone.

Tests used:
Assay type in all cases: cell-based
S. aureus Smith = test: MIC against S. aureus Smith; conditions: Staphylococcus aureus
Source text: |MIC: μg/ml (inoculum size = 10^5 /ml) |S = S. aureus Smith

E. coli EC-14 = test: MIC against E. coli EC-14; conditions: Escherichia coli, EC14
Source text: |MIC: μg/ml (inoculum size = 10^5 /ml) |E = E. coli EC-14

Ps. aeruginosa SR-24 = test: MIC against Ps. aeruginosa SR-24; conditions: Pseudomonas aeruginosa, SR24
Source text: |MIC: μg/ml (inoculum size = 10^5 /ml) |P = Ps. aeruginosa SR-24

[1] = Table I, S = S. aureus Smith, inoculum size = 10^5 /ml
[2] = Table I, E = E. coli EC-14, inoculum size = 10^5 /ml
[3] = Table I, P = Ps. aeruginosa SR-24, inoculum size = 10^5 /ml
[4] = Table II, S (key, unit and inoculum given only in Table I)
[5] = Table II, E (key, unit and inoculum given only in Table I)
[6] = Table II, P (key, unit and inoculum given only in Table I)
[7] = Table III, S (key, unit and inoculum given only in Table I)
[8] = Table III, E (key, unit and inoculum given only in Table I)
[9] = Table III, P (key, unit and inoculum given only in Table I)

MIC (S. aureus Smith; [1]) [mg/L]	MIC (E. coli EC-14; [2]) [mg/L]	MIC (Ps. aeruginosa SR-24; [3]) [mg/L]	SMILES	other results
0.025 (≈ 0.0752 µM)	0.39 (≈ 1.17 µM)	3.13 (≈ 9.42 µM)	COc1ccc[n+](CC2=C(C(=O)[O-])N3C(=O)[C@H](C(C)O)[C@H]3[C@H]2C)c1 (stereo partly drawn) [Table I No. 24]	–
0.0125 (≈ 0.0394 µM)	0.2 (≈ 0.63 µM)	1.56 (≈ 4.92 µM)	CC(O)[C@H]1C(=O)N2C(C(=O)[O-])=C(C[n+]3cccc(N)c3)[C@H](C)[C@H]12 (stereo partly drawn) [Table I No. 19]	–
0.025 (≈ 0.079 µM)	0.2 (≈ 0.632 µM)	1.56 (≈ 4.93 µM)	Cc1ccc[n+](CC2=C(C(=O)[O-])N3C(=O)[C@H](C(C)O)[C@H]3[C@H]2C)c1 (stereo partly drawn) [Table I No. 5]	–
0.025 (≈ 0.0677 µM)	0.2 (≈ 0.541 µM)	1.56 (≈ 4.22 µM)	CC(O)[C@H]1C(=O)N2C(C(=O)[O-])=C(C[n+]3cccc(-c4cnco4)c3)[C@H](C)[C@H]12 (stereo partly drawn) [Table I No. 16]	–
0.025 (≈ 0.0677 µM)	0.39 (≈ 1.06 µM)	6.25 (≈ 16.9 µM)	CC(O)[C@H]1C(=O)N2C(C(=O)[O-])=C(C[n+]3ccc(-c4cnco4)cc3)[C@H](C)[C@H]12 (stereo partly drawn) [Table I No. 18]	–
0.0125 (≈ 0.0413 µM)	0.1 (≈ 0.331 µM)	1.56 (≈ 5.16 µM)	CC(O)[C@H]1C(=O)N2C(C(=O)[O-])=C(C[n+]3ccccc3)[C@H](C)[C@H]12 (stereo partly drawn) [Table I No. 3, 1β-methyl-2-pyridiniomethyl-6α-(1-hydroxyethyl)-1-carba-2-penem-4-carboxylate]	–
0.025 (≈ 0.0752 µM)	0.39 (≈ 1.17 µM)	3.13 (≈ 9.42 µM)	COc1cc[n+](CC2=C(C(=O)[O-])N3C(=O)[C@H](C(C)O)[C@H]3[C@H]2C)cc1 (stereo partly drawn) [Table I No. 25]	–
0.025 (≈ 0.079 µM)	0.2 (≈ 0.632 µM)	3.13 (≈ 9.89 µM)	Cc1cccc[n+]1CC1=C(C(=O)[O-])N2C(=O)[C@H](C(C)O)[C@H]2[C@H]1C (stereo partly drawn) [Table I No. 4]	–
–	–	–	CC(O)[C@H]1C(=O)N2C(C(=O)[O-])=C(C[N+]3(C)CCCC3)[C@H](C)[C@H]12 (stereo partly drawn) [Table II No. 1]	MIC (S. aureus Smith; [4]): 0.025 mg/L (≈ 0.0811 µM); MIC (E. coli EC-14; [5]): 0.1 mg/L (≈ 0.324 µM); MIC (Ps. aeruginosa SR-24; [6]): 3.13 mg/L (≈ 10.1 µM)
0.025 (≈ 0.0718 µM)	0.2 (≈ 0.574 µM)	3.13 (≈ 8.98 µM)	CSc1cc[n+](CC2=C(C(=O)[O-])N3C(=O)[C@H](C(C)O)[C@H]3[C@H]2C)cc1 (stereo partly drawn) [Table I No. 27]	–
–	–	–	CC(O)[C@H]1C(=O)N2C(C(=O)O)=C(CN3CCC(N)C3)[C@H](C)[C@H]12 (stereo partly drawn) [Table III No. 3]	MIC (S. aureus Smith; [7]): 0.05 mg/L (≈ 0.162 µM); MIC (E. coli EC-14; [8]): 0.78 mg/L (≈ 2.52 µM); MIC (Ps. aeruginosa SR-24; [9]): 3.13 mg/L (≈ 10.1 µM)
–	–	–	CC(O)[C@H]1C(=O)N2C(C(=O)[O-])=C(CN[n+]3ccccc3)[C@H](C)[C@H]12 (stereo partly drawn) [Table III No. 1]	MIC (S. aureus Smith; [7]): 0.025 mg/L (≈ 0.0788 µM); MIC (E. coli EC-14; [8]): 0.39 mg/L (≈ 1.23 µM); MIC (Ps. aeruginosa SR-24; [9]): 12.5 mg/L (≈ 39.4 µM)
0.025 (≈ 0.0724 µM)	0.39 (≈ 1.13 µM)	1.56 (≈ 4.52 µM)	CC(O)[C@H]1C(=O)N2C(C(=O)[O-])=C(C[n+]3ccc(C(N)=O)cc3)[C@H](C)[C@H]12 (stereo partly drawn) [Table I No. 15]	–
0.0125 (≈ 0.0362 µM)	0.1 (≈ 0.29 µM)	3.13 (≈ 9.06 µM)	CC(O)[C@H]1C(=O)N2C(C(=O)[O-])=C(C[n+]3ccc(N(C)C)cc3)[C@H](C)[C@H]12 (stereo partly drawn) [Table I No. 22]	–
0.025 (≈ 0.0677 µM)	0.2 (≈ 0.541 µM)	3.13 (≈ 8.47 µM)	CC(O)[C@H]1C(=O)N2C(C(=O)[O-])=C(C[n+]3ccc(-c4ncco4)cc3)[C@H](C)[C@H]12 (stereo partly drawn) [Table I No. 17]	–
0.05 (≈ 0.157 µM)	0.2 (≈ 0.628 µM)	12.5 (≈ 39.3 µM)	CC(O)[C@H]1C(=O)N2C(C(=O)[O-])=C(C[n+]3cccc(O)c3)[C@H](C)[C@H]12 (stereo partly drawn) [Table I No. 23]	–
0.025 (≈ 0.0757 µM)	0.39 (≈ 1.18 µM)	3.13 (≈ 9.47 µM)	CCc1cc[n+](CC2=C(C(=O)[O-])N3C(=O)[C@H](C(C)O)[C@H]3[C@H]2C)cc1 (stereo partly drawn) [Table I No. 7]	–
–	–	–	CC(O)[C@H]1C(=O)N2C(C(=O)[O-])=C(C[N+]3(C)CCCCC3)[C@H](C)[C@H]12 (stereo partly drawn) [Table II No. 4, 1β-methyl-2-(1-methylpiperidinio-1-yl)methyl-6α-(1-hydroxyethyl)-1-carba-2-penem-4-carboxylate]	MIC (S. aureus Smith; [4]): 0.025 mg/L (≈ 0.0775 µM); MIC (E. coli EC-14; [5]): 0.1 mg/L (≈ 0.31 µM); MIC (Ps. aeruginosa SR-24; [6]): 3.13 mg/L (≈ 9.71 µM)
–	–	–	CC(O)[C@H]1C(=O)N2C(C(=O)O)=C(CN3CCCCC3)[C@H](C)[C@H]12 (stereo partly drawn) [Table III No. 4, 1β-methyl-2-(piperidin-1-yl)methyl-6α-(1-hydroxyethyl)-1-carba-2-penem-4-carboxylic acid sodium salt]	MIC (S. aureus Smith; [7]): 0.0125 mg/L; MIC (E. coli EC-14; [8]): 1.56 mg/L; MIC (Ps. aeruginosa SR-24; [9]): 50 mg/L
